Assay results taken from US20240150360A1 (THE REGENTS OF THE UNIVERSITY OF MICHIGAN, priority 2021, published 2024).
pIC50: −log10 of the molar value.

How the values were obtained:
[1] = target: T1, P300 (Homo sapiens, UniProt Q09472); test: P300 degradation in 22Rv1 cells (5 h); format: cell-based; conditions: 22Rv1 cells, 5 h; for Dmax: read-out: P300 Degradation (22Rv1, 5 h) DCmax
T1 construct: endogenous in cells; host or cells: 22Rv1 (ATCC CRL-2505) human prostate cancer cells
Source text: (§1) Biological Assays. […] Cells with 3-8 passages after purchase were used in experiments.

[2] = target: T2, CBP (Homo sapiens, UniProt Q92793); test: CBP degradation in 22Rv1 cells (5 h); format: cell-based; conditions: 22Rv1 cells, 5 h; for Dmax: 22Rv1, 5 h, read-out: CBP Degradation (22Rv1, 5 h) DCmax
T2 construct: endogenous in cells; host or cells: 22Rv1 (ATCC CRL-2505) human prostate cancer cells
Source text: as §1

[3] = test system: 22Rv1 cells; test: Cell growth inhibition assay (CellTiter-Glo) in 22Rv1; format: cell-based, human; conditions: Homo sapiens, 22Rv1, 96 h, 22Rv1 cells, 96 h incubation; read-out: Cell Growth Inhibition (IC50) 22Rv1
Outline: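 22Rv1 prostate cancer cells (passages 3-8, DMEM with 10% FBS) were seeded at 4000 cells/well with compound, 3-fold dilutions from 10 μM final. After 96 h at 37° C and 5% CO2, growth was read by CellTiter-Glo 2.0 luminescence.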

[4] = test system: HL60; test: Cell growth inhibition in HL60; format: cell-based; conditions: Homo sapiens, HL-60, HL60 cells; read-out: Cell Growth Inhibition (IC50) HL60

T1 sequence (Q09472 whole entry): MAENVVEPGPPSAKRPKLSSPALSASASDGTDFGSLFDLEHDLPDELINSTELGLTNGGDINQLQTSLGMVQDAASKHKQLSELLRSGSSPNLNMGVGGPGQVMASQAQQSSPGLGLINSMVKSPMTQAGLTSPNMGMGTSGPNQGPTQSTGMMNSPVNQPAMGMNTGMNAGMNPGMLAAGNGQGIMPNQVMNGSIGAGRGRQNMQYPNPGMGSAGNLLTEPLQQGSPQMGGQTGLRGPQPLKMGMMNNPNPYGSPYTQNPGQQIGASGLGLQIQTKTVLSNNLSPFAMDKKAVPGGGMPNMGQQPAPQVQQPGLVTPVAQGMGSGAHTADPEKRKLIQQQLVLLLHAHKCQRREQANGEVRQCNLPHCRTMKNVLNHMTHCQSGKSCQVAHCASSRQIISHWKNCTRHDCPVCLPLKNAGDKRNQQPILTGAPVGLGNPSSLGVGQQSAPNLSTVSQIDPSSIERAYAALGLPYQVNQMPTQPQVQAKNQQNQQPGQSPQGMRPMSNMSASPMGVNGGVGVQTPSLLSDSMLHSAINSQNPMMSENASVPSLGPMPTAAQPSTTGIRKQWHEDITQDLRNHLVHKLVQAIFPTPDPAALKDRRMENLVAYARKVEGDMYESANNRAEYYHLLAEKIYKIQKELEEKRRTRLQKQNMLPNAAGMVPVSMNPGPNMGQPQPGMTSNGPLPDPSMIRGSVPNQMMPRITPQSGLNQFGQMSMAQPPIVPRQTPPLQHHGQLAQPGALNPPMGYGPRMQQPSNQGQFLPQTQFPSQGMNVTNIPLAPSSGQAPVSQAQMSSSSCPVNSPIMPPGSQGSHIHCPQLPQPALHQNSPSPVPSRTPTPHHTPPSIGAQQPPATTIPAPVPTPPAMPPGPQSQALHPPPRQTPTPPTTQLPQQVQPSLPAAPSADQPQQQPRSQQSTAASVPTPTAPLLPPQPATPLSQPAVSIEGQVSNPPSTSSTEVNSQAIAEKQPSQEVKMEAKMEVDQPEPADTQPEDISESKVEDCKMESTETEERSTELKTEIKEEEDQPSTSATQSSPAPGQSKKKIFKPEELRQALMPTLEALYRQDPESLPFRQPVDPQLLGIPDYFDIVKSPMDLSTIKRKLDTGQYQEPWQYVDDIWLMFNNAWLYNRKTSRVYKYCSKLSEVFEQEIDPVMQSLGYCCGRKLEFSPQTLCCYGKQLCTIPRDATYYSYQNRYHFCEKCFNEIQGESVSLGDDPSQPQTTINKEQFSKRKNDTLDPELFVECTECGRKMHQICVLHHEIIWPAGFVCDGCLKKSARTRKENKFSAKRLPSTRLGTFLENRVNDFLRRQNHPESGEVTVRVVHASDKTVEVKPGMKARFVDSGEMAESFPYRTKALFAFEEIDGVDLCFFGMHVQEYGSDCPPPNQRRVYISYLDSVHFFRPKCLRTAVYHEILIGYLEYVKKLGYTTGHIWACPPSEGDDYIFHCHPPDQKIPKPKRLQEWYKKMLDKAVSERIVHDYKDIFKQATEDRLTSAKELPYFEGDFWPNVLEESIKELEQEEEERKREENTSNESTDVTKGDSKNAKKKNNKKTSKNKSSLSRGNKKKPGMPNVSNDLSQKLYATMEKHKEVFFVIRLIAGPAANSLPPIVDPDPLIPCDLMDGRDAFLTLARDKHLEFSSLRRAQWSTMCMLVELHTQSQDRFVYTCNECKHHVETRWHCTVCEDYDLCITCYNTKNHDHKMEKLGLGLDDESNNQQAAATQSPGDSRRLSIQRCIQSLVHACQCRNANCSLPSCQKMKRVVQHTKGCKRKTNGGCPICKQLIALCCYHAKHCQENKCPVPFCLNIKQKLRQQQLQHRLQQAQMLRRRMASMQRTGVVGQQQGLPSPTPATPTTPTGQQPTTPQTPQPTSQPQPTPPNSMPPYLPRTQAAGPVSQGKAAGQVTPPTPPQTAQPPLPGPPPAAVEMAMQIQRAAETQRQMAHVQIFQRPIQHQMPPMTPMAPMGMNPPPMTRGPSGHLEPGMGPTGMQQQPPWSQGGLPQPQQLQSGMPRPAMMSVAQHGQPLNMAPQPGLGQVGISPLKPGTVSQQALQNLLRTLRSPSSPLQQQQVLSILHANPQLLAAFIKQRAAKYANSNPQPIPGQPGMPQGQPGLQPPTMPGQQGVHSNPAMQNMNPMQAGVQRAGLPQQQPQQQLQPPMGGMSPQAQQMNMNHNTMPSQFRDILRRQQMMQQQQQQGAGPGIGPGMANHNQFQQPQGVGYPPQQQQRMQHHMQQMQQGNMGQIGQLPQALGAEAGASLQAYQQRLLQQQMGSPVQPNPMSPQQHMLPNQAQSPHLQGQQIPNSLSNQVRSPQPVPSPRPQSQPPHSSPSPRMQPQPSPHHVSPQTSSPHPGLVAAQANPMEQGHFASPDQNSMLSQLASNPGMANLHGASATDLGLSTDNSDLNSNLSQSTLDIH
T2 sequence (Q92793 whole entry): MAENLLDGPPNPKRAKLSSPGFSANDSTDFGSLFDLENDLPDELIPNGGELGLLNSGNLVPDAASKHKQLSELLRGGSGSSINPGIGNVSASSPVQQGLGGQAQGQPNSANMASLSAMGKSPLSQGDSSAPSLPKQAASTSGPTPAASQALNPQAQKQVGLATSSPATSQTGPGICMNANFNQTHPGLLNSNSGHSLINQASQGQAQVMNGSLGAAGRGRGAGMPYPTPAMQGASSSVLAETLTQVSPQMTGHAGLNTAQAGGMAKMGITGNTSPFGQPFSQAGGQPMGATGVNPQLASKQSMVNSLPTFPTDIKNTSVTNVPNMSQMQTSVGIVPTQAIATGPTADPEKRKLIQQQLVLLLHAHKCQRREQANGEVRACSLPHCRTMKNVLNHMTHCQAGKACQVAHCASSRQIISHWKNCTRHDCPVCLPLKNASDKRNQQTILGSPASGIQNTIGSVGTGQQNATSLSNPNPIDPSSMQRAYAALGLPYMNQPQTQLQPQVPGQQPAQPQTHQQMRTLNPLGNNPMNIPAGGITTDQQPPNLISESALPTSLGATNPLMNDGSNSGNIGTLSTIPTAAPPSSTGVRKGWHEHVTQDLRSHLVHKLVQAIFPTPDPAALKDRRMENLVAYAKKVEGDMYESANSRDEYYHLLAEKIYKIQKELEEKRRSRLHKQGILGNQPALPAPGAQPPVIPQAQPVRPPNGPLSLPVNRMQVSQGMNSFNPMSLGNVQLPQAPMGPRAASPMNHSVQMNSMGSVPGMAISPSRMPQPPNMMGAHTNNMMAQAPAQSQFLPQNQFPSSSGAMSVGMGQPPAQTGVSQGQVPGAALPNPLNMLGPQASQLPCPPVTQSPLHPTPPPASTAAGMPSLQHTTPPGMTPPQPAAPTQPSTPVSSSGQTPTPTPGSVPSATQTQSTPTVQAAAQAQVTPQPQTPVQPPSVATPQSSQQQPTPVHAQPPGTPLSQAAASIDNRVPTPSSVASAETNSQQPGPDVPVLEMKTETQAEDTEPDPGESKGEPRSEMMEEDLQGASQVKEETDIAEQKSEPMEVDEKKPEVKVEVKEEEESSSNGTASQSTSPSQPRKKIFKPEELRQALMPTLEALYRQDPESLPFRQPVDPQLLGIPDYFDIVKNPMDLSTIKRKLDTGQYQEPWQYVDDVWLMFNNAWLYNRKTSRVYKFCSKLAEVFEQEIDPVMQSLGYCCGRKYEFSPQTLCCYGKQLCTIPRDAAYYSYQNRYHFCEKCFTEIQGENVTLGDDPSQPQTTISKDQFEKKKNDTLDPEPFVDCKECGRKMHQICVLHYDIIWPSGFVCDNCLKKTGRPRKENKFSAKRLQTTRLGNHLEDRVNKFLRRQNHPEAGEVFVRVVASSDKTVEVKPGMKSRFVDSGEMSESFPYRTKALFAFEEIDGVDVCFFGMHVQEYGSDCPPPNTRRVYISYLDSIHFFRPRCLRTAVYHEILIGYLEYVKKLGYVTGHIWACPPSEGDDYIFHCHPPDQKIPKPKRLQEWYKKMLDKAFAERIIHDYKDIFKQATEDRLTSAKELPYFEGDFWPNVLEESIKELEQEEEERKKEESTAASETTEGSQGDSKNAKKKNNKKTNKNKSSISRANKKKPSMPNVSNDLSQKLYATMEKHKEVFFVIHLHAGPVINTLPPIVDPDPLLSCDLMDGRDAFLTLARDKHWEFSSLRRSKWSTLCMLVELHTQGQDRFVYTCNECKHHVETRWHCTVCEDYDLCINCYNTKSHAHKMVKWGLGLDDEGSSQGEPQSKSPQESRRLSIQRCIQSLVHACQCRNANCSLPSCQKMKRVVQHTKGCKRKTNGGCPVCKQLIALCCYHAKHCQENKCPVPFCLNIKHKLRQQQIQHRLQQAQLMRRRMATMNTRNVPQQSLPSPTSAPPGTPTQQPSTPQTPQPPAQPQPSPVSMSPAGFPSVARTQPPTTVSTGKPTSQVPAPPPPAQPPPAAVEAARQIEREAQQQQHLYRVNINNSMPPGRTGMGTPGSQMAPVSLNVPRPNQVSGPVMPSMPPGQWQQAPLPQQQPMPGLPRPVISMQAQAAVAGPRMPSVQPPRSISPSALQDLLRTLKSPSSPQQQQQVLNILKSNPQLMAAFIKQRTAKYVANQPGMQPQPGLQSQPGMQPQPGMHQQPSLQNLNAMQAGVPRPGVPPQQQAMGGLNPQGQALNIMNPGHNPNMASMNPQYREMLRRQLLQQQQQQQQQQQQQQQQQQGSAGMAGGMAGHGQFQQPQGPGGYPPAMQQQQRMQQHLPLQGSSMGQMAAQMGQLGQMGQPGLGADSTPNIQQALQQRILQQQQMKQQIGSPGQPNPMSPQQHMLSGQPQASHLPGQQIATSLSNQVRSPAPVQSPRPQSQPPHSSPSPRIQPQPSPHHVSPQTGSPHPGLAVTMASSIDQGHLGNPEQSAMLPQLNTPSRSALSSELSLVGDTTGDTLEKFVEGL

| Structure (SMILES) | DC50 [1] [nM] | Dmax [1] [%] | Dmax [2] [%] | DC50 [2] [nM] | pIC50 [3] | pIC50 [4] |
| --- | --- | --- | --- | --- | --- | --- |
| CC(=O)N1CCc2c(c(N3CCCc4cc5c(cc43)CCCC5)nn2C2CCN(C(=O)CN3Cc4cc5c(cc4C3)C(=O)N(C3CCC(=O)NC3=O)C5=O)CC2)C1 (stereo not drawn) [CP-077, 6-(2-(4-(5-acetyl-3-(3,4,6,7,8,9-hexahydrobenzo[g]quinolin-1(2H)-yl)-4,5,6,7-tetrahydro-1H-pyrazolo[4,3-c]pyridin-1-yl)piperidin-1-yl)-2-oxoethyl)-2-(2,6-dioxopiperidin-3-yl)-6,7-dihydropyrrolo[3,4-f]isoindole-1,3(2H,5H)-dione] | < 10 | > 90 | > 90 | < 10 | > 6.00 | > 6.00 |
| CC(=O)N1CCc2cc3c(cc2C1)CCCN3c1nn(C2CCN(C(=O)CN3Cc4cc5c(cc4C3)C(=O)N(C3CCC(=O)NC3=O)C5=O)CC2)c2c1CN(C(C)=O)CC2 (stereo not drawn) [CP-080, 6-(2-(4-(5-acetyl-3-(7-acetyl-3,4,6,7,8,9-hexahydropyrido[3,4-g]quinolin-1(2H)-yl)-4,5,6,7-tetrahydro-1H-pyrazolo[4,3-c]pyridin-1-yl)piperidin-1-yl)-2-oxoethyl)-2-(2,6-dioxopiperidin-3-yl)-6,7-dihydropyrrolo[3,4-f]isoindole-1,3(2H,5H)-dione] | < 10 | > 70 | > 70 | < 10 | < 5.00 | < 5.00 |
| CC(=O)N1CCc2c(c(-c3cccc4ccncc34)nn2C2CCN(C(=O)CN3Cc4cc5c(cc4C3)C(=O)N(C3CCC(=O)NC3=O)C5=O)CC2)C1 (stereo not drawn) [CP-082, 6-(2-(4-(5-acetyl-3-(isoquinolin-8-yl)-4,5,6,7-tetrahydro-1H-pyrazolo[4,3-c]pyridin-1-yl)piperidin-1-yl)-2-oxoethyl)-2-(2,6-dioxopiperidin-3-yl)-6,7-dihydropyrrolo[3,4-f]isoindole-1,3(2H,5H)-dione] | > 1000 | < 50 | < 50 | > 1000 | < 5.00 | < 5.00 |
| CC(=O)N1CCc2c(c(N3CCCc4cc(C5CC5)c(C(F)F)cc43)nn2C2CCN(C(=O)CN3Cc4cc5c(cc4C3)C(=O)N(C3CCC(=O)NC3=O)C5=O)CC2)C1 (stereo not drawn) [CP-013, 6-(2-(4-(5-acetyl-3-(6-cyclopropyl-7-(difluoromethyl)-3,4-dihydroquinolin-1(2H)-yl)-4,5,6,7-tetrahydro-1H-pyrazolo[4,3-c]pyridin-1-yl)piperidin-1-yl)-2-oxoethyl)-2-(2,6-dioxopiperidin-3-yl)-6,7-dihydropyrrolo[3,4-f]isoindole-1,3(2H,5H)-dione] | < 10 | > 90 | > 90 | < 10 | > 6.00 | > 6.00 |
| CC(=O)N1CCc2c(c(N3CCCc4cc(-c5ccccc5)c(C(F)F)cc43)nn2C2CCN(C(=O)CN3Cc4cc5c(cc4C3)C(=O)N(C3CCC(=O)NC3=O)C5=O)CC2)C1 (stereo not drawn) [CP-022, 6-(2-(4-(5-acetyl-3-(7-(difluoromethyl)-6-phenyl-3,4-dihydroquinolin-1(2H)-yl)-4,5,6,7-tetrahydro-1H-pyrazolo[4,3-c]pyridin-1-yl)piperidin-1-yl)-2-oxoethyl)-2-(2,6-dioxopiperidin-3-yl)-6,7-dihydropyrrolo[3,4-f]isoindole-1,3(2H,5H)-dione] | < 10 | > 90 | > 90 | < 10 | > 7.00 | > 7.00 |
| CC(=O)N1CCc2c(c(N3CCCc4cc(Cl)c(C(F)F)cc43)nn2C2CCN(C(=O)CN3CCc4cc5c(cc4C3)C(=O)N(C3CCC(=O)NC3=O)C5=O)CC2)C1 (stereo not drawn) [CP-018, 6-(2-(4-(5-acetyl-3-(6-chloro-7-(difluoromethyl)-3,4-dihydroquinolin-1(2H)-yl)-4,5,6,7-tetrahydro-1H-pyrazolo[4,3-c]pyridin-1-yl)piperidin-1-yl)-2-oxoethyl)-2-(2,6-dioxopiperidin-3-yl)-5,6,7,8-tetrahydro-1H-pyrrolo[3,4-g]isoquinoline-1,3(2H)-dione] | > 1000 | < 50 | < 50 | < 1000 | < 5.00 | < 5.00 |

More lines, now with the values ahead:

| DC50 [1] [nM] | Dmax [1] [%] | Dmax [2] [%] | DC50 [2] [nM] | pIC50 [3] | pIC50 [4] | Structure (SMILES) |
| --- | --- | --- | --- | --- | --- | --- |
| < 10 | > 70 | > 90 | < 10 | > 7.00 | > 7.00 | CC(=O)N1CCc2c(c(N3CCCc4cc(-c5cnn(C)c5)c(C(F)F)cc43)nn2[C@H]2CC[C@H](CN3CCc4cc5c(cc4C3)C(=O)N(C3CCC(=O)NC3=O)C5=O)CC2)C1 (stereo partly drawn) [CP-049, 6-((4-(5-acetyl-3-(7-(difluoromethyl)-6-(1-methyl-1H-pyrazol-4-yl)-3,4-dihydroquinolin-1(2H)-yl)-4,5,6,7-tetrahydro-1H-pyrazolo[4,3-c]pyridin-1-yl)cyclohexyl)methyl)-2-(2,6-dioxopiperidin-3-yl)-5,6,7,8-tetrahydro-1H-pyrrolo[3,4-g]isoquinoline-1,3(2H)-dione] |
| < 10 | > 90 | > 90 | < 10 | > 7.00 | > 7.00 | CC(=O)N1CCc2c(c(N3CCCc4cc(-c5cnn(C)c5)c(C(F)F)cc43)nn2C2CCC(N3CCc4cc5c(cc4C3)C(=O)N(C3CCC(=O)NC3=O)C5=O)CC2)C1 (stereo not drawn) [CP-038, 6-(4-(5-acetyl-3-(7-(difluoromethyl)-6-(1-methyl-1H-pyrazol-4-yl)-3,4-dihydroquinolin-1(2H)-yl)-4,5,6,7-tetrahydro-1H-pyrazolo[4,3-c]pyridin-1-yl)cyclohexyl)-2-(2,6-dioxopiperidin-3-yl)-5,6,7,8-tetrahydro-1H-pyrrolo[3,4-g]isoquinoline-1,3(2H)-dione] |
| < 10 | > 70 | > 70 | < 10 | > 7.00 | > 6.00 | CC(=O)N1CCc2c(c(N3CCCc4cc(-c5cnn(C)c5)c(C(F)F)cc43)nn2C2CCN(CC3Cc4cc5c(cc4C3)C(=O)N(C3CCC(=O)NC3=O)C5=O)CC2)C1 (stereo not drawn) [CP-052, 6-((4-(5-acetyl-3-(7-(difluoromethyl)-6-(1-methyl-1H-pyrazol-4-yl)-3,4-dihydroquinolin-1(2H)-yl)-4,5,6,7-tetrahydro-1H-pyrazolo[4,3-c]pyridin-1-yl)piperidin-1-yl)methyl)-2-(2,6-dioxopiperidin-3-yl)-6,7-dihydrocyclopenta[f]ioindole-1,3(2H,5H)-dione] |
